Measured values: PMC7615677 (Science translational medicine, 2023)
In brackets after ≈: the same amount, converted by molar mass. Where two headings read alike, the source gives them in different places.

Key:
[1] = Solubility in biorelevant buffers; format: physicochemical
Protocol: The ionization constant (pKa), octanol-pH 7.4 buffer partition coefficient (Log D7.4), solubility in biorelevant buffers (FaSSIF-V2, FeSSIF-V2, FaSSGF and pH 7.4 phosphate buffered saline (PBS)) and Caco-2 permeability were determined according to previously published methods ([10]).

[2] = test system: HEK293F-derived mitochondria; test: Calcium loading capacity (CLC) assessment; format: biochemical
Protocol: The CLC of frozen HEK293F-derived mitochondria was determined using a method based on that previously described for fresh rat liver mitochondria ([23]). Briefly, a buffer (130 mM Sucrose, 37.54 mM KCl, 2.5 mM KH2PO4, 5 mM HEPES) containing 0.5 mM Ca^2+ and supplemented with 15 mM succinate, 2.5 μM rotenone and 0.15 μg/ml cell impermeant Fluo 5N (Life Technologies), was added to each well of a 384 well microplate (control wells also contained 0.24 μl/well DMSO or 3 μM cyclosporine). Thawed mitochondria suspended at 0.6 mg/ml were added to all wells to initiate the assay, and the fluorescence measured every 5 minutes at 520 nm in a PHERAstar FS microplate reader (BMG LabTech, Aylesbury, UK), (25 reads over 2 hours). Area under the curve (AUC) values for the first 10 reads were exported and the concentration-response relationship was modelled using the following formula: y=((B-A)/(1+(10^X/10^C)^D)+A where B=max, A=min, C=IC50, D=slope. The fitted curves were then used to calculate a pXC50 value.

[3] = In vitro cytotoxicity assay; format: cell-based; details: mouse, primary mouse macrophages (PMM)
[4] = molecular target: T1, CYP2C9 (Homo sapiens, UniProt P11712); test: Cytochrome P450 inhibition, human liver microsomes; format: in vitro ADME
T1 construct: incubation of isoform-specific substrates with human liver microsomes; from tissue; host or cells: human liver microsomes
T1 sequence (P11712 whole entry, canonical isoform): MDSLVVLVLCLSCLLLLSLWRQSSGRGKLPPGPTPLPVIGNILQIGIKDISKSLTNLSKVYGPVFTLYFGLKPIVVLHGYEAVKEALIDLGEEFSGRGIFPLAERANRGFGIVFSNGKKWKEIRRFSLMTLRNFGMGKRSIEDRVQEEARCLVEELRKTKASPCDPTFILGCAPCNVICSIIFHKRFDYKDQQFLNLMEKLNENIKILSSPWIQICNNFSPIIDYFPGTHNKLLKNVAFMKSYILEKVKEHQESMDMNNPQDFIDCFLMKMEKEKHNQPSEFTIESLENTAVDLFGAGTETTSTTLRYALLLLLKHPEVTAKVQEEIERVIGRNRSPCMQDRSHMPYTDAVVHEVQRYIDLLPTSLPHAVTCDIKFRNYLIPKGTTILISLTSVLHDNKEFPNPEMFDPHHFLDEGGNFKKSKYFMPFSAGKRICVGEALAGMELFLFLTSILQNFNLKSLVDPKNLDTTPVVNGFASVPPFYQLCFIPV
Text: The formation of known metabolites mediated by a specific CYP isoform was monitored. CYP isoform-specific pathways (and positive control inhibitors) included CYP1A2: phenacetin O-deethylation (furafylline), CYP2B6: bupropion hydroxylation (PPP), CYP2C8: amodiaquine deethylation (quercetin) CYP2C9: tolbutamide methylhydroxylation (sulfaphenazole), CYP2C19: (S)-mephenytoin 4’-hydroxylation (ticlopidine), CYP2D6: dextromethorphan O-demethylation (quinidine), and CYP3A: midazolam 1’-hydroxylation and testosterone 6β-hydroxylation (ketoconazole). […] The organic solvent content was maintained at less than 1% (v/v). NADPH was added to initiate the reaction which was then quenched by the addition of acetonitrile containing internal standard at specified times. Concentrations of the isoform-specific metabolites were quantified by LC-MS (Waters Xevo TQD triple quadrupole MS coupled to a Waters Acquity UPLC system) relative to calibration standards prepared in pre-quenched microsomal matrix.
Time dependent inhibition was assessed using an “IC50 shift” method based on a previous publication ([44]). […] A shift in the IC50 in the presence of NADPH (relative to the absence) was used as an indication of time dependent inhibition. Reference direct and time-dependent inhibitors were included in the assays.

[5] = molecular target: T2, V1 a (Homo sapiens, UniProt P37288); test: In vitro pharmacology panel (Eurofins); format: binding; details: read-out: activity (% of DMSO control)
T2 construct: purchased Eurofins (Cerep/DiscoverX SafetyScreen44 in vitro pharmacology panel)
T2 sequence (P37288 whole entry): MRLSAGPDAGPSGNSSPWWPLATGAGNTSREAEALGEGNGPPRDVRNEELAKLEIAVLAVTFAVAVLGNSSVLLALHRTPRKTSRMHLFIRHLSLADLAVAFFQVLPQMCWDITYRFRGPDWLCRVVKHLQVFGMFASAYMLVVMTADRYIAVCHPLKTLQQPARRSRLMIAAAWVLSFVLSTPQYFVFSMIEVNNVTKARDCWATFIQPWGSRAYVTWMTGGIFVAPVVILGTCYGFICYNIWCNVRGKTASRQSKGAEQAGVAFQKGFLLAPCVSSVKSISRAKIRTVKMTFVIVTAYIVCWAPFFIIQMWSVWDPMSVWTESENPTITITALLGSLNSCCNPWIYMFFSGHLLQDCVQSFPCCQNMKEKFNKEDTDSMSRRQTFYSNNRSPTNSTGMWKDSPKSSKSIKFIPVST
Text: (§1) Listed values represent the percent change relative to the DMSO control activity. When an IC50 had to be determined, eight different concentrations were included. All values are the mean of assay readout duplicates.

[6] = molecular target: T3, norepinephrine transporter (Homo sapiens, UniProt P23975); test: In vitro pharmacology panel (Eurofins); format: binding; details: read-out: activity (% of DMSO control)
T3 construct: purchased Eurofins (Cerep/DiscoverX SafetyScreen44 in vitro pharmacology panel)
T3 sequence (P23975 whole entry): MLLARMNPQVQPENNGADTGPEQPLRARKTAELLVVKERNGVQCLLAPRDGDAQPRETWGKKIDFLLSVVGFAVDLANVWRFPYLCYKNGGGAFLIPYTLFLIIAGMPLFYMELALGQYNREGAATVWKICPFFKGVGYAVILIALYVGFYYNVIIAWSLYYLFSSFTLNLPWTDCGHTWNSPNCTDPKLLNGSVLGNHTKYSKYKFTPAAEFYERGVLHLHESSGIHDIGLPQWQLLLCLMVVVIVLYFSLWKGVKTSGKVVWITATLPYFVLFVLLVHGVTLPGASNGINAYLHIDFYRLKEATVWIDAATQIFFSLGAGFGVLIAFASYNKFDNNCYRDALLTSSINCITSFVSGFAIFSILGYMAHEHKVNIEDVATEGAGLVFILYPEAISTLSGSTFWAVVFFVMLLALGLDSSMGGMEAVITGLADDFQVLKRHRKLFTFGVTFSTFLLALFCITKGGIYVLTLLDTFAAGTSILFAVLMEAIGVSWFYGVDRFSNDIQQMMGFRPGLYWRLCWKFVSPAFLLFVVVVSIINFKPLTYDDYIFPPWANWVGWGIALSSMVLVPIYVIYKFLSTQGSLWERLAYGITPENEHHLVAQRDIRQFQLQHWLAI
Text: as §1

[7] = molecular target: T4, 5-HT transporter (Homo sapiens, UniProt P31645); test: In vitro pharmacology panel (Eurofins); format: binding; details: read-out: activity (% of DMSO control)
T4 construct: purchased Eurofins (Cerep/DiscoverX SafetyScreen44 in vitro pharmacology panel)
Text: as §1

[8] = molecular target: T5, M1 (Homo sapiens, UniProt P11229); test: In vitro pharmacology panel (Eurofins); format: binding; details: read-out: activity (% of DMSO control)
T5 construct: purchased Eurofins (Cerep/DiscoverX SafetyScreen44 in vitro pharmacology panel)
Text: as §1

[9] = molecular target: T6, μ (MOP) (Homo sapiens, UniProt P35372); test: In vitro pharmacology panel (Eurofins); format: binding; details: read-out: activity (% of DMSO control)
T6 construct: purchased Eurofins (Cerep/DiscoverX SafetyScreen44 in vitro pharmacology panel)
T6 sequence (P35372 whole entry): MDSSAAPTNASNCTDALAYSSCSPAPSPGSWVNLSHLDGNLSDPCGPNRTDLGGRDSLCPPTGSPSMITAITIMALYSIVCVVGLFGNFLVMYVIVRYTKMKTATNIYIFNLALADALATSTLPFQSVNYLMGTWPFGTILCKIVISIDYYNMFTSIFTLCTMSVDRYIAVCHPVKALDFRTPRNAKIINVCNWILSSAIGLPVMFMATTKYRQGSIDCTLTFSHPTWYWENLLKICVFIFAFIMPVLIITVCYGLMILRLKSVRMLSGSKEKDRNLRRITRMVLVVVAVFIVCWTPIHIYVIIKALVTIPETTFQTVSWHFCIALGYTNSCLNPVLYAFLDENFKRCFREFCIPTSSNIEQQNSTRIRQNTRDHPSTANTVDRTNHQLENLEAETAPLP
Text: as §1

[10] = molecular target: T7, β1 (Homo sapiens, UniProt P08588); test: In vitro pharmacology panel (Eurofins); format: binding; details: read-out: activity (% of DMSO control)
T7 construct: purchased Eurofins (Cerep/DiscoverX SafetyScreen44 in vitro pharmacology panel)
T7 sequence (P08588 whole entry): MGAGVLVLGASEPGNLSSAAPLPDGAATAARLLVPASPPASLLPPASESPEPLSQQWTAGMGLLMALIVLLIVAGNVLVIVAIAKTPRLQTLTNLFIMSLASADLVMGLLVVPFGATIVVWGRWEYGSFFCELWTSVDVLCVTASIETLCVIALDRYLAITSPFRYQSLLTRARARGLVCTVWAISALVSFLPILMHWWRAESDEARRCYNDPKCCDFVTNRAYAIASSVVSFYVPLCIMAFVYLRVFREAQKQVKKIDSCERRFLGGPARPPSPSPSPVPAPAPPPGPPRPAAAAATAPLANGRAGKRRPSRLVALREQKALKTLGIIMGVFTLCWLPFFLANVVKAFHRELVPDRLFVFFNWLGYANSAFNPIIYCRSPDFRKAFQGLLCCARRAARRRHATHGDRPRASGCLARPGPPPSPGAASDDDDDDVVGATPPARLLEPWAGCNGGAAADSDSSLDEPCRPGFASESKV
Text: as §1

[11] = molecular target: T8, M3 (Homo sapiens, UniProt P20309); test: In vitro pharmacology panel (Eurofins); format: binding; details: read-out: activity (% of DMSO control)
T8 construct: purchased Eurofins (Cerep/DiscoverX SafetyScreen44 in vitro pharmacology panel)
T8 sequence (P20309 whole entry): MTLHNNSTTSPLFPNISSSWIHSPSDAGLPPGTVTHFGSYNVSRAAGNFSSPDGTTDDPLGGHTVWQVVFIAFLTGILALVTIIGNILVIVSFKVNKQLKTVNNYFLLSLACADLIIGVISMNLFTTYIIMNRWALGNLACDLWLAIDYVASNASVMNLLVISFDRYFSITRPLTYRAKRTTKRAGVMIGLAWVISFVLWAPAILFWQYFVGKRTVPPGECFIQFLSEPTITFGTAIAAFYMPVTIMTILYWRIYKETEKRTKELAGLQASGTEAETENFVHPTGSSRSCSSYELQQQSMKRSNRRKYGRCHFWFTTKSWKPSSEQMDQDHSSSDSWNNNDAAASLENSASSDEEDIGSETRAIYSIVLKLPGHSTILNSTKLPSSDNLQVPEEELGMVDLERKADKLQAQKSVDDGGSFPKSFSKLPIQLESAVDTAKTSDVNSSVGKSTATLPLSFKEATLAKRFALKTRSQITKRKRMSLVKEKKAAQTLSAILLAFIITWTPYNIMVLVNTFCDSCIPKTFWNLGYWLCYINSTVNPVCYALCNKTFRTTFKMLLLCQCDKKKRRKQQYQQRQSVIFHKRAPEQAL
Text: as §1

[12] = molecular target: T9, GR (Homo sapiens, UniProt P04150); test: In vitro pharmacology panel (Eurofins); format: binding; details: read-out: activity (% of DMSO control)
T9 construct: purchased Eurofins (Cerep/DiscoverX SafetyScreen44 in vitro pharmacology panel)
Text: as §1

[13] = molecular target: T10, H1 (Homo sapiens, UniProt P35367); test: In vitro pharmacology panel (Eurofins); format: binding; details: read-out: activity (% of DMSO control)
T10 construct: purchased Eurofins (Cerep/DiscoverX SafetyScreen44 in vitro pharmacology panel)
T10 sequence (P35367 whole entry): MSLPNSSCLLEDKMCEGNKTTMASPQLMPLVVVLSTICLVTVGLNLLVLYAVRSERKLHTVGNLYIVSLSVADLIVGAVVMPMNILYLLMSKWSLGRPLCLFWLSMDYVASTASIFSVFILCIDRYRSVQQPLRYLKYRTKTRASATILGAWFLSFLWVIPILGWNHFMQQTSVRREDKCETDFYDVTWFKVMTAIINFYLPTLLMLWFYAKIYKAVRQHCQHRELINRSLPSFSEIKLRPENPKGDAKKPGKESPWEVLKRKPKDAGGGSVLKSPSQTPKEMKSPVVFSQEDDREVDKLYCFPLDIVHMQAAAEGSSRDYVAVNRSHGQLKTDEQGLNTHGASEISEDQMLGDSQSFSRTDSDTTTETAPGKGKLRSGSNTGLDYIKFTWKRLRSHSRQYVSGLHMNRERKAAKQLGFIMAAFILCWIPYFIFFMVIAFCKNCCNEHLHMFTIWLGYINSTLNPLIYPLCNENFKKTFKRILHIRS
Text: as §1

[14] = molecular target: T11, α1A (Homo sapiens, UniProt P35348); test: In vitro pharmacology panel (Eurofins); format: binding; details: read-out: activity (% of DMSO control)
T11 construct: purchased Eurofins (Cerep/DiscoverX SafetyScreen44 in vitro pharmacology panel)
T11 sequence (P35348 whole entry): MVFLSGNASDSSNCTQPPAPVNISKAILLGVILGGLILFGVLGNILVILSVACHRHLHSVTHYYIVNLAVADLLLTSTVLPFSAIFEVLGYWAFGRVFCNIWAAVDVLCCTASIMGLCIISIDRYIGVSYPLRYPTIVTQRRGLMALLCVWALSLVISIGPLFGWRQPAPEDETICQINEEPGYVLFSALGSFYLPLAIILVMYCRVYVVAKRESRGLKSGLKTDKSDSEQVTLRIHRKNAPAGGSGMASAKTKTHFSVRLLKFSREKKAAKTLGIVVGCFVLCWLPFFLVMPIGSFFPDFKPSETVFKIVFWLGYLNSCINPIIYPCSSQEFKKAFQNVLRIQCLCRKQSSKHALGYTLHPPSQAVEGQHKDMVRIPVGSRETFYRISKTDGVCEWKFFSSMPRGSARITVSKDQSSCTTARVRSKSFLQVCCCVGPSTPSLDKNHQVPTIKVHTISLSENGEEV
Text: as §1

[15] = molecular target: T12, 5-HT3 (Homo sapiens, UniProt P46098); test: In vitro pharmacology panel (Eurofins); format: binding; details: read-out: activity (% of DMSO control)
T12 construct: purchased Eurofins (Cerep/DiscoverX SafetyScreen44 in vitro pharmacology panel)
T12 sequence (P46098 24-478): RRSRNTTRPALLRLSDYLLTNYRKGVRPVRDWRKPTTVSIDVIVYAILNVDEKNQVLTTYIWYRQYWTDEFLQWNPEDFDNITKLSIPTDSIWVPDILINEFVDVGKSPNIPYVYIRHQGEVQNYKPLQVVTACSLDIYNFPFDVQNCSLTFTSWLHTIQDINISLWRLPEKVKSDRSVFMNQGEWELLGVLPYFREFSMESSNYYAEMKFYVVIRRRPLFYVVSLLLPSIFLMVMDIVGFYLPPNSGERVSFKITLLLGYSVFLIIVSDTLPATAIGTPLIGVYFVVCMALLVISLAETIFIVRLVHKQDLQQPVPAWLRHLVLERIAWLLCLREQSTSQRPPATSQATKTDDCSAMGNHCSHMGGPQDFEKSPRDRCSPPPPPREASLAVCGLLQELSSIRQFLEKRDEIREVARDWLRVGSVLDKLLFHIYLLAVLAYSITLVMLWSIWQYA
Text: as §1

[16] = molecular target: T13, M2 (Homo sapiens, UniProt P08172); test: In vitro pharmacology panel (Eurofins); format: binding; details: read-out: activity (% of DMSO control)
T13 construct: purchased Eurofins (Cerep/DiscoverX SafetyScreen44 in vitro pharmacology panel)
Text: as §1

[17] = molecular target: T14, ETA (Homo sapiens, UniProt P25101); test: In vitro pharmacology panel (Eurofins); format: binding; details: read-out: activity (% of DMSO control)
T14 construct: purchased Eurofins (Cerep/DiscoverX SafetyScreen44 in vitro pharmacology panel)
T14 sequence (P25101 21-427): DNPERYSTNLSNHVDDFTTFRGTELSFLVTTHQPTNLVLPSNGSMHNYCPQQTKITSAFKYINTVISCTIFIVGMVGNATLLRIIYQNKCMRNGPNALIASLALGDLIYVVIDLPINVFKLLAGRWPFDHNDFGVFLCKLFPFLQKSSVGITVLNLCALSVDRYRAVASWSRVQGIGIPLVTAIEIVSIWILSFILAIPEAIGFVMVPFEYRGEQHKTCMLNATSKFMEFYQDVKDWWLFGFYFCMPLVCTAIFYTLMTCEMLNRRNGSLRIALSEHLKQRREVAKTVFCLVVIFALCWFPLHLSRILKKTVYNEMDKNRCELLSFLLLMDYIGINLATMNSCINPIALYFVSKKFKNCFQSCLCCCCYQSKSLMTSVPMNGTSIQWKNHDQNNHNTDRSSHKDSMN
Text: as §1

[18] = test system: L. tropica; test: Leishmania intramacrophage in vitro assay; format: cell-based; details: L. tropica MHOM/AF/2015/HTD7
Protocol: (§2) A drug incubation period of 96 h was applied, and cells were stained with Giemsa for microscopic evaluation of cellular amastigote burdens. Percentage reduction compared to the burden in the infected non-treated control wells was used as a measure for drug activity.

[19] = test system: L. panamensis; test: Leishmania intramacrophage in vitro assay; format: cell-based; details: L. panamensis MHOM/PA/71/LS94
Protocol: as §2

[20] = test system: L. guyanensis; test: Leishmania intramacrophage in vitro assay; format: cell-based; details: L. guyanensis MHOM/PE/02/PER 054/0
Protocol: as §2

[21] = test system: L. infantum; test: Leishmania intramacrophage in vitro assay; format: cell-based
Protocol: as §2

[22] = test system: L. major; test: Leishmania intramacrophage in vitro assay; format: cell-based
Protocol: as §2

[23] = test system: L. donovani axenic amastigotes; test: Drug sensitivity assay, axenic amastigotes; format: cell-based; details: Leishmania donovani
Protocol: The clonal L. donovani cell line LdBOB (derived from MHOM/SD/62/1S-CL2D) was grown as promastigotes at 28°C and as axenic amastigotes at 37°C, as described previously ([25]).
To examine the effects of test compounds on growth in 96-well plates, promastigote or axenic amastigote cultures seeded at 5 × 10^4 parasites mL^–1 were incubated in the presence of 2-fold serial dilutions of test compounds for 72 h. Following incubation, 50 μM resazurin was added to each well and fluorescence (excitation of 528 nm and emission of 590 nm) measured after a further 3 h incubation.

[24] = test system: THP-1; test: MitoXpress oxygen consumption assay; format: cell-based
[25] = L. infantum MHOM/BR/2007/WC (L3015)
[26] = L. infantum MHOM/ES/2016/LLM-2346
[27] = L. infantum MHOM/FR/96/LEM3323 Cl4 MIL-R (miltefosine resistant)
[28] = L. infantum MHOM/FR/96/LEM3323 Cl4 PM-R (paromomycin resistant)
[29] = L. infantum MHOM/MA/67/ITMAP263

Cc1[nH]c2nc(N)nc(C)c2c1-c1ccc(C#N)c2c1OCO2 [DNDI-6174]
solubility ([1]; FaSSGF, pH 1.6, fassgf or other biorelevant, pH 1.6, read-out: Solubility FaSSGF): 1200 µg/mL (≈ 3900 µM)
solubility ([1]; FaSSIF-V2, pH 6.5, fassif, pH 6.5, read-out: Solubility FaSSIF): 11 µg/mL (≈ 35.8 µM)
solubility ([1]; FeSSIF-V2, pH 5.8, fessif, pH 5.8, read-out: Solubility FeSSIF): 54 µg/mL (≈ 176 µM)
Solubility FaSSGF ([1]; pH 1.6): 1.19 mg/mL (≈ 3870 µM)
solubility ([1]; phosphate buffered saline (PBS), pH 7.4, aqueous buffer, pH 7.4, read-out: Solubility PBS): 6.5 µg/mL (≈ 21.2 µM)
Mean pXC50, calcium loading capacity ([2]; HEK mitochondria): 5
XC50, reduction in calcium loading capacity ([2]; isolated HEK mitochondria): 10 µM
CC50 [3]: > 64 µM
IC50 ([4]; CYP2C9, read-out: Direct inhibition IC50): 14.9 µM
IC50 ([4]; without NADPH preincubation, read-out: Time-dependent inhibition IC50): 13.8 µM
remaining activity at 10 µM [5]: 101%
remaining activity at 10 µM [6]: 81.9%
remaining activity at 10 µM [7]: 69.9%
remaining activity at 10 µM [8]: 91.5%
remaining activity at 10 µM [9]: 94.3%
remaining activity at 10 µM [10]: 113%
remaining activity at 10 µM [11]: 98.5%
remaining activity at 10 µM [12]: 93%
remaining activity at 10 µM [13]: 91.8%
remaining activity at 10 µM [14]: 25.1%
remaining activity at 10 µM [15]: 105%
remaining activity at 10 µM [16]: 92.9%
remaining activity at 10 µM [17]: 103%
EC50 [18]: 360 nM
EC90 [18]: 2180 nM
EC50 [19]: 40 nM
EC90 [19]: 85 nM
EC50 [20]: 12 nM
EC90 [20]: 39 nM
EC50 [21, 25]: 70 nM
EC90 [21, 25]: 180 nM
EC50 [21, 26]: 210 nM
EC90 [21, 26]: 1520 nM
EC50 ([21]; L. infantum MHOM/FR/96/LEM3323): 50 nM
EC90 ([21]; L. infantum MHOM/FR/96/LEM3323): 180 nM
EC50 [21, 27]: 70 nM
EC90 [21, 27]: 220 nM
EC50 [21, 28]: 80 nM
EC90 [21, 28]: 170 nM
EC50 [21, 29]: 160 nM
EC90 [21, 29]: 440 nM
EC50 ([22]; L. major MHOM/IL/81/Friedlin): 90 nM
EC90 ([22]; L. major MHOM/IL/81/Friedlin): 0.9 µM
EC50 ([22]; L. major MHOM/SA/85/JISH118): 740 nM
EC90 ([22]; L. major MHOM/SA/85/JISH118): 11.4 µM
EC50 [23]: 75 ± 2 nM
XC50 [24]: > 50 µM
pXC50 [24]: < 4.3
